# Experimental data taken from the supplement of paper PMC4862054.
# Tests used:
# HCC1143 = experiment: drug sensitivity score (DSS), CellTiter-Blue viability (DSS (AUC-based score)); higher = stronger viability inhibition; extreme values may be limits of the assay; conditions: incubation time: 72 h
# How it was run: (§1)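 A 72 h incubation followed seeding of breast cancer cell lines (20 µl suspension) into 384-well plates holding compound in a 5- or 9-concentration series. CellTiter-Blue, 2.5 µl per well, was incubated 2 h at 37 °C, and fluorescence was measured at 560/590 nm. Normalisation on every plate used 0.1 % DMSO and a positive kill control. From the fitted dose-response curve, the area under the curve was taken as the drug sensitivity score.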
# SK-BR-3 = experiment: as above; conditions: incubation time: 72 h
# How it was run: as §1
# MDA-MB-468 = experiment: as above; conditions: incubation time: 72 h
# How it was run: as §1
# BT-474 = experiment: as above; conditions: incubation time: 72 h
# How it was run: as §1
# HDQ-P1 [1] = experiment: as above; conditions: incubation time: 72 h
# How it was run: as §1
# HCC1599 [2] = experiment: as above; conditions: incubation time: 72 h
# How it was run: as §1
# Hs578T [3] = experiment: as above; conditions: incubation time: 72 h
# How it was run: as §1
# HCC1937 [4] = experiment: as above; conditions: incubation time: 72 h
# How it was run: as §1
# MFM-223 = experiment: as above; conditions: incubation time: 72 h
# How it was run: as §1
# MDA-MB-231 = experiment: as above; conditions: incubation time: 72 h
# How it was run: as §1
# DU-4475 [5] = experiment: as above; conditions: incubation time: 72 h
# How it was run: as §1
# CAL-148 [6] = experiment: as above; conditions: incubation time: 72 h
# How it was run: as §1
# BT-549 = experiment: as above; conditions: incubation time: 72 h
# How it was run: as §1
# CAL-85-1 [7] = experiment: as above; conditions: incubation time: 72 h
# How it was run: as §1
# MDA-MB-436 [8] = experiment: as above; conditions: incubation time: 72 h
# How it was run: as §1
# CAL-120 = experiment: as above; conditions: incubation time: 72 h
# How it was run: as §1
# HCC1599 [9] = experiment: normalised viability (% of control), CellTiter-Blue; higher = more viable cells (100 = DMSO, 0 = benzethonium chloride kill control); conditions: 1 nM; incubation time: 72 h
# Method: (§2)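 DSRT, CellTiter-Blue viability, 72 h incubation. Signal is normalised to DMSO and benzethonium chloride controls. Value is the normalised response at dose 1.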
# Hs578T [10] = experiment: as above; conditions: 1 nM; incubation time: 72 h
# Method: as §2
# HCC1937 [11] = experiment: as above; conditions: 1 nM; incubation time: 72 h
# Method: as §2
# MDA-MB-436 [12] = experiment: as above; conditions: 1 nM; incubation time: 72 h
# Method: as §2
# MDA-MB-453 = experiment: normalised viability (% of control), CellTiter-Blue; higher = more viable cells (about 100 = DMSO control); conditions: 10000 nM; incubation time: 72 h
# Method: (§3)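 DSRT, CellTiter-Blue viability, 72 h incubation. Signal is normalised to DMSO and benzethonium chloride controls. Value is the normalised response at dose 9.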
# HDQ-P1 [13] = experiment: as above; conditions: 10000 nM; incubation time: 72 h
# Method: as §3
# DU-4475 [14] = experiment: as above; conditions: 10000 nM; incubation time: 72 h
# Method: as §3
# CAL-148 [15] = experiment: as above; conditions: 10000 nM; incubation time: 72 h
# Method: as §3
# CAL-51 = experiment: as above; conditions: 10000 nM; incubation time: 72 h
# Method: as §3
# CAL-85-1 [16] = experiment: as above; conditions: 10000 nM; incubation time: 72 h
# Method: as §3
smiles,measurement,setting,value
CCCCC(=O)OCC(=O)[C@]1(O)Cc2c(O)c3c(c(O)c2[C@@H](O[C@H]2C[C@H](NC(=O)C(F)(F)F)[C@H](O)[C@H](C)O2)C1)C(=O)c1c(OC)cccc1C3=O [Valrubicin],drug sensitivity score,HCC1143,11.4
same,drug sensitivity score,SK-BR-3,18.6
same,drug sensitivity score,MDA-MB-468,11.7
same,drug sensitivity score,BT-474,5.42
same,drug sensitivity score,HDQ-P1 [1],9.44
same,drug sensitivity score,HCC1599 [2],6.82
same,drug sensitivity score,Hs578T [3],10.3
same,drug sensitivity score,HCC1937 [4],16
same,drug sensitivity score,MFM-223,6.7
same,drug sensitivity score,MDA-MB-231,10.8
same,drug sensitivity score,DU-4475 [5],25
same,drug sensitivity score,CAL-148 [6],21.1
same,drug sensitivity score,BT-549,7.75
same,drug sensitivity score,CAL-85-1 [7],7.92
same,drug sensitivity score,MDA-MB-436 [8],5.44
same,drug sensitivity score,CAL-120,15.3
same,normalised viability,HCC1599 [9],75.7%
same,normalised viability,Hs578T [10],103%
same,normalised viability,HCC1937 [11],81.6%
same,normalised viability,MDA-MB-436 [12],106%
same,normalised viability,MDA-MB-453,16.2%
same,normalised viability,HDQ-P1 [13],52.9%
same,normalised viability,DU-4475 [14],-0.99%
same,normalised viability,CAL-148 [15],1.24%
same,normalised viability,CAL-51,2.32%
same,normalised viability,CAL-85-1 [16],18.6%
CCCS(=O)(=O)Nc1ccc(F)c(C(=O)c2c[nH]c3ncc(-c4ccc(Cl)cc4)cc23)c1F [Vemurafenib],drug sensitivity score,HCC1143,0
same,drug sensitivity score,SK-BR-3,0
same,drug sensitivity score,MDA-MB-468,0
same,drug sensitivity score,BT-474,0
same,drug sensitivity score,HDQ-P1 [1],1.56
same,drug sensitivity score,HCC1599 [2],0
same,drug sensitivity score,Hs578T [3],1.04
same,drug sensitivity score,HCC1937 [4],0.544
same,drug sensitivity score,MFM-223,0
same,drug sensitivity score,MDA-MB-231,0
same,drug sensitivity score,DU-4475 [5],17.3
same,drug sensitivity score,CAL-148 [6],0
same,drug sensitivity score,BT-549,0
same,drug sensitivity score,CAL-85-1 [7],2.25
same,drug sensitivity score,MDA-MB-436 [8],0
same,drug sensitivity score,CAL-120,0
same,normalised viability,HCC1599 [9],83.4%
same,normalised viability,Hs578T [10],112%
same,normalised viability,HCC1937 [11],119%
same,normalised viability,MDA-MB-436 [12],91.1%
same,normalised viability,MDA-MB-453,75.5%
same,normalised viability,HDQ-P1 [13],68.6%
same,normalised viability,DU-4475 [14],-0.32%
same,normalised viability,CAL-148 [15],94.1%
same,normalised viability,CAL-51,103%
same,normalised viability,CAL-85-1 [16],78.3%
